Data on 54 compounds can be found in US8778923B2, “GLP-1 receptor modulators” (Receptos, Inc., priority 2011, dated 2014).

Usually EC50 stands for the midpoint of the concentration-response curve.

The target of the assay is T1, GLP-1R (Homo sapiens, UniProt P43220).
T1 construct: host or cells: CRE-bla CHO-K1
The assay is described as follows: EC20 GLP-1(9-36) PAM cAMP assay: dose response of compound in the presence of fixed concentration of GLP-1(9-36). The format is cell-based. Conditions: GLP-1R CRE-bla CHO-K1 cells, compound dose response in presence of fixed concentration of GLP-1(9-36). The procedure, abridged:
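Positive allosteric modulation read as cAMP rise: 12-point compound titration combined with a fixed EC20 level of GLP-1(9-36) on GLP-1R CHO-K1 cells, IBMX present, 30 min at 37 °C. Luminescent HitHunter signal converted to cAMP; nonlinear fit gave EC50 and Emax.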

T1 sequence (P43220 24-463): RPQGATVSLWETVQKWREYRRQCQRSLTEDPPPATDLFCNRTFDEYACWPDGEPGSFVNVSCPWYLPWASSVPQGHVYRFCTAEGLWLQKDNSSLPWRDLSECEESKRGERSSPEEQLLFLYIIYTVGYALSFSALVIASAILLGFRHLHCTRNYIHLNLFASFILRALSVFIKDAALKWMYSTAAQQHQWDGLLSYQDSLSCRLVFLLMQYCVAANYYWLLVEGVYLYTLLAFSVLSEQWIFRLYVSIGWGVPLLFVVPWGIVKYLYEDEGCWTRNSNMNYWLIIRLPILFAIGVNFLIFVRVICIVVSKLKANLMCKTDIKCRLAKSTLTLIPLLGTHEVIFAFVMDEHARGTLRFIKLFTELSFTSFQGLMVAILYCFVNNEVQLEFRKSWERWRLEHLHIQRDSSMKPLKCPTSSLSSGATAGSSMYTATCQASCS
T1 sequence (P01275 100-127 partner limits assumed): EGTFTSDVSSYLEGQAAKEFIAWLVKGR

Regarding `CC(C)Oc1ccc(-c2cnc(-c3ccc(C[C@H](NC(=O)c4ccc(C(C)(C)C)cc4)C(=O)O)cc3)nc2)cc1` [Compound 200], the EC50 was in the range of 2.5 to 5 µM.

As to `CN(C)c1ccc(-c2cnc(-c3ccc(C[C@H](NC(=O)c4ccc(C(C)(C)C)cc4)C(=O)O)cc3)nc2)cc1` [Compound 201], the EC50 fell in the range of 2.5 to 5 µM. For `CN(C)c1cccc(-c2cnc(-c3ccc(C[C@H](NC(=O)c4ccc(C(C)(C)C)cc4)C(=O)O)cc3)nc2)c1` [Compound 202] the value was 5 to 10 µM; for `Cc1ccc(-c2cnc(-c3ccc(C[C@H](NC(=O)c4ccc(C(C)(C)C)cc4)C(=O)O)cc3)nc2)cc1` [Compound 203], 5 to 10 µM; for `CC(C)(C)c1ccc(C(=O)N[C@@H](Cc2ccc(-c3ncc(-c4cccc(C(C)(C)C)c4)cn3)cc2)C(=O)O)cc1` [Compound 204], 2.5 to 5 µM. For `CC(C)(C)c1ccc(C(=O)N[C@@H](Cc2ccc(-c3ncc(-c4ccc(-c5ccccc5)cc4)cn3)cc2)C(=O)O)cc1` [Compound 205] the value was 0.8 to 2.5 µM. As for `CC(C)(C)c1ccc(C(=O)N[C@@H](Cc2ccc(-c3ncc(-c4ccc(F)cc4)cn3)cc2)C(=O)O)cc1` [Compound 206], the figure is 2.5 to 5 µM.

`CC(C)(C)c1ccc(C(=O)N[C@@H](Cc2ccc(-c3ncc(-c4cccc(F)c4)cn3)cc2)C(=O)O)cc1` [Compound 207]: the EC50 was in the range of 2.5 to 5 µM. With `CC(C)(C)c1ccc(C(=O)N[C@@H](Cc2ccc(-c3ncc(-c4ccc(F)cc4F)cn3)cc2)C(=O)O)cc1` [Compound 208], the EC50 was in the range of 2.5 to 5 µM.

Consider `CC(C)(C)c1ccc(C(=O)N[C@@H](Cc2ccc(-c3ncc(-c4ccc(C(F)(F)F)cc4)cn3)cc2)C(=O)O)cc1` [Compound 209], for which the EC50 lay within 0.8 to 2.5 µM. Consider `CC(C)(C)c1ccc(C(=O)N[C@@H](Cc2ccc(-c3ncc(-c4cccc(C(F)(F)F)c4)cn3)cc2)C(=O)O)cc1` [Compound 210], for which the EC50 was 2.5 to 5 µM. Take `CC(C)(C)c1ccc(C(=O)N[C@@H](Cc2ccc(-c3ncc(-c4ccc(Cl)cc4)cn3)cc2)C(=O)O)cc1` [Compound 211]: the EC50 lay in the range of 5 to 10 µM. Consider `CC(C)(C)c1ccc(C(=O)N[C@@H](Cc2ccc(-c3ncc(-c4cccc(Cl)c4)cn3)cc2)C(=O)O)cc1` [Compound 212], for which the EC50 is 5 to 10 µM. As to `CC(C)(C)c1ccc(C(=O)N[C@@H](Cc2ccc(-c3ncc(-c4ccc(Cl)c(Cl)c4)cn3)cc2)C(=O)O)cc1` [Compound 213], the EC50 lay within 2.5 to 5 µM. As for `COc1ccc(-c2cnc(-c3ccc(C[C@H](NC(=O)c4ccc(C(C)(C)C)cc4)C(=O)O)cc3)nc2)cc1OC` [Compound 214], the figure is 2.5 to 5 µM. In the case of `COc1cccc(-c2cnc(-c3ccc(C[C@H](NC(=O)c4ccc(C(C)(C)C)cc4)C(=O)O)cc3)nc2)c1` [Compound 215], the EC50 lay within 2.5 to 5 µM. With `CC(C)(C)c1ccc(C(=O)N[C@@H](Cc2ccc(-c3ncc(-c4cccc(N5CCCCC5)c4)cn3)cc2)C(=O)O)cc1` [Compound 216], the EC50 is 2.5 to 5 µM. `Cc1cccc(-c2cnc(-c3ccc(C[C@H](NC(=O)c4ccc(C(C)(C)C)cc4)C(=O)O)cc3)nc2)c1` [Compound 217]: the EC50 lay in the range of 5 to 10 µM. As for `CC(C)(C)c1ccc(C(=O)N[C@@H](Cc2ccc(-c3ncc(-c4cccc(-c5ccccc5)c4)cn3)cc2)C(=O)O)cc1` [Compound 218], the figure is 2.5 to 5 µM; as for `CCCCCCCOc1cccc(-c2cnc(-c3ccc(C[C@H](NC(=O)c4ccc(C(C)(C)C)cc4)C(=O)O)cc3)nc2)c1` [Compound 219], 0.8 to 2.5 µM; as for `CCCCCCCOc1ccccc1-c1cnc(-c2ccc(C[C@H](NC(=O)c3ccc(C(C)(C)C)cc3)C(=O)O)cc2)nc1` [Compound 220], 2.5 to 5 µM. With `CCOc1ccc(-c2cnc(-c3ccc(C[C@H](NC(=O)c4ccc(C(C)(C)C)cc4)C(=O)O)cc3)nc2)cc1` [Compound 221], the EC50 fell in the range of 2.5 to 5 µM. For `CCCOc1ccc(-c2cnc(-c3ccc(C[C@H](NC(=O)c4ccc(C(C)(C)C)cc4)C(=O)O)cc3)nc2)cc1` [Compound 222] the value was 0.8 to 2.5 µM. In the case of `CCCCOc1ccc(-c2cnc(-c3ccc(C[C@H](NC(=O)c4ccc(C(C)(C)C)cc4)C(=O)O)cc3)nc2)cc1` [Compound 223], the EC50 is 0.8 to 2.5 µM. For `CCCCCOc1ccc(-c2cnc(-c3ccc(C[C@H](NC(=O)c4ccc(C(C)(C)C)cc4)C(=O)O)cc3)nc2)cc1` [Compound 224] the value was 0.8 to 2.5 µM; for `CCCCCCOc1ccc(-c2cnc(-c3ccc(C[C@H](NC(=O)c4ccc(C(C)(C)C)cc4)C(=O)O)cc3)nc2)cc1` [Compound 225, (S)-2-(4-(tert-butyl)benzamido)-3-(4-(5-(4-(hexyloxy)phenyl)pyrimidin-2-yl)phenyl)propanoic acid], under 0.8 µM. As for `CC(C)(C)c1ccc(C(=O)N[C@@H](Cc2ccc(-c3ncc(-c4ccc5ccccc5c4)cn3)cc2)C(=O)O)cc1` [Compound 226], the EC50 was 0.8 to 2.5 µM. For `Cc1ccc(-c2cnc(-c3ccc(C[C@H](NC(=O)c4ccc(C(C)(C)C)cc4)C(=O)O)cc3)nc2)cc1C` [Compound 227] the value was 2.5 to 5 µM; for `CCCc1ccc(-c2cnc(-c3ccc(C[C@H](NC(=O)c4ccc(C(C)(C)C)cc4)C(=O)O)cc3)nc2)cc1` [Compound 228], 0.8 to 2.5 µM. For `Cc1ccc(-c2ccc(-c3cnc(-c4ccc(C[C@H](NC(=O)c5ccc(C(C)(C)C)cc5)C(=O)O)cc4)nc3)cc2)cc1` [Compound 229] the value was 0.8 to 2.5 µM; for `Cc1cccc(-c2ccc(-c3cnc(-c4ccc(C[C@H](NC(=O)c5ccc(C(C)(C)C)cc5)C(=O)O)cc4)nc3)cc2)c1` [Compound 230], 0.8 to 2.5 µM.

`CC(C)(C)c1ccc(C(=O)N[C@@H](Cc2ccc(-c3ncc(-c4ccc(COc5ccccc5)cc4)cn3)cc2)C(=O)O)cc1` [Compound 231]: the EC50 is 5 to 10 µM. For `Cc1cc(-c2cnc(-c3ccc(C[C@H](NC(=O)c4ccc(C(C)(C)C)cc4)C(=O)O)cc3)nc2)ccc1N(C)C` [Compound 232] the value was 0.8 to 2.5 µM. As for `CNc1ccc(-c2cnc(-c3ccc(C[C@H](NC(=O)c4ccc(C(C)(C)C)cc4)C(=O)O)cc3)nc2)cc1` [Compound 233], the figure is 2.5 to 5 µM; as for `CNc1cccc(-c2cnc(-c3ccc(C[C@H](NC(=O)c4ccc(C(C)(C)C)cc4)C(=O)O)cc3)nc2)c1` [Compound 234], 5 to 10 µM.

Consider `CC(C)Nc1ccc(-c2cnc(-c3ccc(C[C@H](NC(=O)c4ccc(C(C)(C)C)cc4)C(=O)O)cc3)nc2)cc1` [Compound 235], for which the EC50 lay in the range of 2.5 to 5 µM. On to `CC(C)(C)c1ccc(C(=O)N[C@@H](Cc2ccc(-c3ncc(-c4ccc5c(c4)CCCN5)cn3)cc2)C(=O)O)cc1` [Compound 236], for which the EC50 lay within 5 to 10 µM.

With `CCCCOc1ccc(-c2cnc(-c3ccc(C[C@H](NC(=O)c4ccc(C(C)(C)C)s4)C(=O)O)cc3)nc2)cc1` [Compound 237], the EC50 fell in the range of 0.8 to 2.5 µM. For `CCCCCOc1ccc(-c2cnc(-c3ccc(C[C@H](NC(=O)c4ccc(C(C)(C)C)s4)C(=O)O)cc3)nc2)cc1` [Compound 238] the value was 0.8 to 2.5 µM; for `CCCCCCOc1ccc(-c2cnc(-c3ccc(C[C@H](NC(=O)c4ccc(C(C)(C)C)s4)C(=O)O)cc3)nc2)cc1` [Compound 239], 0.8 to 2.5 µM; for `CC(C)(C)c1ccc(C(=O)N[C@@H](Cc2ccc(-c3ncc(-c4ccc(C(F)(F)F)cc4)cn3)cc2)C(=O)O)s1` [Compound 240], 2.5 to 5 µM. For `CC(C)Oc1ccc(-c2cnc(-c3ccc(C[C@H](NC(=O)c4ccc(C(C)(C)C)s4)C(=O)O)cc3)nc2)cc1` [Compound 241] the value was 0.8 to 2.5 µM; for `CC(C)c1ccc(-c2cnc(-c3ccc(C[C@H](NC(=O)c4ccc(C(C)(C)C)s4)C(=O)O)cc3)nc2)cc1` [Compound 242], 0.8 to 2.5 µM. Turning to `CC(C)Cc1ccc(-c2cnc(-c3ccc(C[C@H](NC(=O)c4ccc(C(C)(C)C)s4)C(=O)O)cc3)nc2)cc1` [Compound 243], the concentration giving a half-maximal response (EC50) lay in the range of 0.8 to 2.5 µM. Turning to `CC(C)(C)c1ccc(C(=O)N[C@@H](Cc2ccc(-c3ncc(-c4ccc(OC5CC5)cc4)cn3)cc2)C(=O)O)s1` [Compound 244], the EC50 lay in the range of 2.5 to 5 µM. As for `CC(C)(C)c1ccc(C(=O)N[C@@H](Cc2ccc(-c3ncc(-c4ccc5ccccc5c4)cn3)cc2)C(=O)O)s1` [Compound 245], the figure is 0.8 to 2.5 µM; as for `Cc1ccc(-c2ccc(-c3cnc(-c4ccc(C[C@H](NC(=O)c5ccc(C(C)(C)C)s5)C(=O)O)cc4)nc3)cc2)cc1` [Compound 246], 0.8 to 2.5 µM; as for `Cc1cccc(-c2ccc(-c3cnc(-c4ccc(C[C@H](NC(=O)c5ccc(C(C)(C)C)s5)C(=O)O)cc4)nc3)cc2)c1` [Compound 247], 0.8 to 2.5 µM.

As to `CCCCCCCCCCOc1ccc(-c2cnc(-c3ccc(C[C@H](NC(=O)c4ccc(C(C)(C)C)s4)C(=O)O)cc3)nc2)cc1` [Compound 249, (S)-2-(5-(tert-butyl)thiophene-2-carboxamido)-3-(4-(5-(4-(decyloxy)phenyl)-pyrimidin-2-yl)phenyl)propanoic acid], the EC50 lay within 5 to 10 µM. For `CCCCCCCCCCCCOc1ccc(-c2cnc(-c3ccc(C[C@H](NC(=O)c4ccc(C(C)(C)C)s4)C(=O)O)cc3)nc2)cc1` [Compound 250] the value was 0.8 to 2.5 µM; for `CCCCCCCCCCCCCCOc1ccc(-c2cnc(-c3ccc(C[C@H](NC(=O)c4ccc(C(C)(C)C)s4)C(=O)O)cc3)nc2)cc1` [Compound 251], 5 to 10 µM; for `CCCCCCCCCCCCCCCCOc1ccc(-c2cnc(-c3ccc(C[C@H](NC(=O)c4ccc(C(C)(C)C)s4)C(=O)O)cc3)nc2)cc1` [Compound 252], 5 to 10 µM.

As to `CC(C)(C)c1ccc(C(=O)N[C@@H](Cc2ccc(-c3ncc(N4CCC(C(C)(C)C)CC4)cn3)cc2)C(=O)O)cc1` [Compound 253, (S)-2-(4-(tert-butyl)benzamido)-3-(4-(5-(4-(tert-butyl)piperidin-1-yl)pyrimidin-2-yl)phenyl)propanoic acid], the 50% effective concentration (EC50) fell in the range of 2.5 to 5 µM. Turning to `CCCCCCCN1CCN(c2cnc(-c3ccc(C[C@H](NC(=O)c4ccc(C(C)(C)C)cc4)C(=O)O)cc3)nc2)CC1` [Compound 254], the EC50 was 0.8 to 2.5 µM.
